The numbers were not newly measured in US20080269334A1, “Highly Concentrated Pourable Aqueous Solutions Of Potassium Ibuprofen, Their Preparation And Their Use” (ALBEMARLE CORPORATION, priority 2005, published 2008), which cites them from elsewhere.

Regarding `CC(C)Cc1ccc(C(C)C(=O)O)cc1` (stereo not drawn) [ibuprofen], under “402 mg ibuprofen, 100 mg PEG 600, 3.3 wt % glycerin or propylene glycol, 6.4 wt % water, 38.4 mg KOH, U.S. Pat. Nos. 5,071,643 and 5,360,615”, the “solubility of ibuprofen in a solvent system” value is 67%. On to `CC(C)Cc1ccc(C(C)C(=O)[O-])cc1.[K+]` (stereo not drawn) [potassium ibuprofen, potassium 2-(4-isobutylphenyl)propionate], for which the “concentration of dissolved potassium ibuprofen” value (U.S. Pat. No. 5,912,011 Table 1, system with 35.2 wt % ibuprofen, 33.3 wt % PEG 600, 7.3 wt % water) was 24.2 wt %. Further, the “maximum concentration of dissolved potassium ibuprofen shown” value (U.S. Pat. No. 6,387,400, polyethylene glycol solvent, less than about 50 mole % of ibuprofen converted to the potassium salt) is “about 24.2 wt %”.
